Measurements taken from patent US20250170248A1, “SMARCA DEGRADERS AND USES THEREOF” (Kymera Therapeutics, Inc., priority 2021, published 2025).

Assays:
Type in all cases: cell-based
SMARCA2 [1] = target: T1, SMARCA2 (Homo sapiens, UniProt P51531); assay: MSD SMARCA2 degradation in A549 cell line; conditions: for Dmax: A549, A549 cells; for Dmax / DC50: 24 h; for DC50 / SMARCA2 MSD A549 degradation 24 h: Average Dmax %: A549 cells; for DC50: read-out: SMARCA2 MSD A549 degradation 24 h: Average external-Abs DC50
Protocol: Example 10. MSD SMARCA2 Degradation in A549 Cell Line
Cells were seeded into 96-well plates (A549 cells: 2×10^4 cells/well/100 ul media) and incubated overnight. The next day, 200 nL compound were added into the intermediate plate with Echo (Labcyte 550) from source plate containing a 3-fold serial dilution from top concentration of 1 mM. The culture medium was changed with 8 0ul of fresh medium and 80 μL of 2× compound solution was added into the well to make a final concentration of 1000 nM, 333.3 nM, 111.1 nM, 37.04 nM, 12.35 nM, 4.115 nM, 1.372 nM, 0.457 nM, 0.152 nM and 0 nM (DMSO). The wells were mixed and then incubated for 24 hours. The media was aspirated from the cultures and 60 ul pre-chilled PIPA lysis buffer (Boston BioProducts BP-115D) with protease/phosphatase inhibitor (Roche 05892791001/Roche 04906837001) was added into the well to lyze the cells for 20 minutes at 4° C. The MSD plate (L15XA) was coated with 40 uL cell lysate and incubated at 4° C. overnight. The next day, the plate was washed three times with TBST (CST #9997S), 150 ul/well. The MSD plates was blocked with 150 ul blocking buffer per well and shaked for 1 hr at RT, 600 rpm. The blocking buffer was 3% Blocker A (MSD, R93BA-4) in TBST. The MSD plate was washed three times with 150 uL/well of TBST and 25 ul/well of detection antibody (Rabbit anti-SMARCA2/BRM antibody, 100 μg/mL, ab223735) was added at final concentration of 1 μg/mL diluted in 1% Blocking buffer and shaken for 1 hour at RT, 600 rpm. The MSD plate was washed three times with 150 ul/well of TBST and 25 ul/well of SULFO-TAG anti-rabbit antibody (MSD, R32AB-1) was added at final concentration of 1 μg/ml diluted in 1% Blocking buffer and shaken for 1 hour at RT, 600 rpm. The MSD plate was washed three times with 150 uL/well of TBST and 150 ul/well of 2× MSD reading buffer diluted from 4× (MSD, R92TC-2) with water was added. Lastly, the MSD instrument was read.
The letter codes for SMARCA2 degradation potency (DC50) include: A (<10 nM), B (10-50 nM), C (>50-100 nM), and D (>100 nM). The letter codes for the percentage of SMARCA degradation after 24 hours (Dmax %) include: A (>90% degradation), B (>70-90% degradation), C (50-70% degradation), and D (<50% degradation).

SMARCA4 = target: T2, SMARCA4 (Homo sapiens, UniProt P51532); assay: SMARCA4 Western blot degradation in MV4-11 cells; conditions: 24 h; for Dmax: MV4-11, MV4-11 cells, read-out: SMARCA4 MSD MV411 degradation 24 h: average Dmax %; for DC50: MV4-11 cells, read-out: SMARCA4 MSD MV411 degradation 24 h: Mean external-Abs DC50
T2 construct: SMARCA2/SMARCA4 protein degradation selectivity in MV4-11 cells; endogenous in cells; host or cells: MV4-11
Protocol: Example 11. SMARCA2 and SMARCA4 Western Blot MV4-11 Degradation
Cells were seeded into 6-well plates (MV4-11:4×10^6 cells/well/1 ml) and 1 ml of 2× compound solution was added into the well to make the final concentration and the plates were mixed well and incubated for 24 hours (No cytotoxicity was observed). The cell were collected with media and spun at 3000 rpm for 5 minutes. The supernatant was aspirated and the well and the cells were washed with cold PBS once and combined for centrifugation again; the supernatant aspirated again. 200 uL pre-chilled RIPA lysis buffer (Boston BioProducts BP-115D) with protease/phosphatase inhibitor (Roche 05892791001/Roche 04906837001) was directly added into the tube to lyze the cells for 20 minutes on ice. The cell lysate were collected into EP tubes and spun at 13000 rpm for 20 minutes and 72 uL supernatant was transferred to a fresh EP tube containing 18 μL of 5× loading buffer (Beyotime Bio P0015) to make the loading samples. The samples were heated to 100° C. for 10 minutes and cooled to RT and microcentrifuged. 20 μL of samples were loaded onto SDS-PAGE gel (Novex, WG1402BOX) and the gel was run at 80 V for 20 minutes and 120 V for 1.5 hours. The samples were electrotransfer to a NC membrane using wet-transfer method with 250 mA for 2.5 hours. The membrane was blocked with LICOR blocking buffer (LI COR,927-50000) for 1 hour. The membrane was washed three times with TBST(CST #9997S), 5 minutes each. Incubation was performed with primary antibody prepared in blocking buffer with 0.1% Tween-20 (Solarbio, P8220) at 4° C. overnight (Anti-SMARCA2/BRM antibody (ab15597) 1:500; Anti-BRG1 antibody [EPR3912](ab108318) 1:1000; Rabbit anti-Bafl80 antibody [EPR15860](Abcam,ab196022) 1:1000; mouse anti-beta-Actin (8H10D10) (CST #3700) 1:10000). The membrane was washed three times with TBST, 5 minutes each. Incubation with secondary antibody was performed for 1 hour at RT (anti-rabbit IgG (Licor,926-32211) 1:5000; anti-mouse IgG (LI-COR, 926-68070) 1:5000). The membrane was washed three times with 5 minutes each and lastly the LiCOR was read.
The letter codes for SMARCA2/4 degradation potency (DC50) include: A (<1 nM), B (1-10 nM), C (>10-100 nM), and D (>100 nM). The letter codes for the percentage of SMARCA2/4 degradation after 24 hours (Dmax %) include: A (>90% degradation), B (>70-90% degradation), C (50-70% degradation), and D (<50% degradation). The letter codes of SMARCA2/4 selectivity include: A (>500 fold), B (>100-500 fold), C (10-100 fold), and D (<10 fold). Table 8. SMARCA2/4 Selectivity Results

SMARCA2 [2] = target: T1, SMARCA2; assay: SMARCA2 Western blot degradation in MV4-11 cells; design: SMARCA2/SMARCA4 protein degradation selectivity in MV4-11 cells; endogenous in cells; host or cells: MV4-11; conditions: for Dmax: MV4-11, MV4-11 cells, read-out: SMARCA2 MSD MV411 degradation 24 h: average Dmax %; for Dmax / DC50 / SMARCA2 MSD MV411 degradation 24 h: average Dmax %: 24 h; for DC50 / Selectivity in MV411 / SMARCA2 MSD MV411 degradation 24 h: average Dmax %: MV4-11 cells; for DC50: read-out: SMARCA2 MSD MV411 degradation 24 h: Mean external-Abs DC50; for Selectivity in MV411: SMARCA2/4 selectivity

T1 sequence (P51531 whole entry): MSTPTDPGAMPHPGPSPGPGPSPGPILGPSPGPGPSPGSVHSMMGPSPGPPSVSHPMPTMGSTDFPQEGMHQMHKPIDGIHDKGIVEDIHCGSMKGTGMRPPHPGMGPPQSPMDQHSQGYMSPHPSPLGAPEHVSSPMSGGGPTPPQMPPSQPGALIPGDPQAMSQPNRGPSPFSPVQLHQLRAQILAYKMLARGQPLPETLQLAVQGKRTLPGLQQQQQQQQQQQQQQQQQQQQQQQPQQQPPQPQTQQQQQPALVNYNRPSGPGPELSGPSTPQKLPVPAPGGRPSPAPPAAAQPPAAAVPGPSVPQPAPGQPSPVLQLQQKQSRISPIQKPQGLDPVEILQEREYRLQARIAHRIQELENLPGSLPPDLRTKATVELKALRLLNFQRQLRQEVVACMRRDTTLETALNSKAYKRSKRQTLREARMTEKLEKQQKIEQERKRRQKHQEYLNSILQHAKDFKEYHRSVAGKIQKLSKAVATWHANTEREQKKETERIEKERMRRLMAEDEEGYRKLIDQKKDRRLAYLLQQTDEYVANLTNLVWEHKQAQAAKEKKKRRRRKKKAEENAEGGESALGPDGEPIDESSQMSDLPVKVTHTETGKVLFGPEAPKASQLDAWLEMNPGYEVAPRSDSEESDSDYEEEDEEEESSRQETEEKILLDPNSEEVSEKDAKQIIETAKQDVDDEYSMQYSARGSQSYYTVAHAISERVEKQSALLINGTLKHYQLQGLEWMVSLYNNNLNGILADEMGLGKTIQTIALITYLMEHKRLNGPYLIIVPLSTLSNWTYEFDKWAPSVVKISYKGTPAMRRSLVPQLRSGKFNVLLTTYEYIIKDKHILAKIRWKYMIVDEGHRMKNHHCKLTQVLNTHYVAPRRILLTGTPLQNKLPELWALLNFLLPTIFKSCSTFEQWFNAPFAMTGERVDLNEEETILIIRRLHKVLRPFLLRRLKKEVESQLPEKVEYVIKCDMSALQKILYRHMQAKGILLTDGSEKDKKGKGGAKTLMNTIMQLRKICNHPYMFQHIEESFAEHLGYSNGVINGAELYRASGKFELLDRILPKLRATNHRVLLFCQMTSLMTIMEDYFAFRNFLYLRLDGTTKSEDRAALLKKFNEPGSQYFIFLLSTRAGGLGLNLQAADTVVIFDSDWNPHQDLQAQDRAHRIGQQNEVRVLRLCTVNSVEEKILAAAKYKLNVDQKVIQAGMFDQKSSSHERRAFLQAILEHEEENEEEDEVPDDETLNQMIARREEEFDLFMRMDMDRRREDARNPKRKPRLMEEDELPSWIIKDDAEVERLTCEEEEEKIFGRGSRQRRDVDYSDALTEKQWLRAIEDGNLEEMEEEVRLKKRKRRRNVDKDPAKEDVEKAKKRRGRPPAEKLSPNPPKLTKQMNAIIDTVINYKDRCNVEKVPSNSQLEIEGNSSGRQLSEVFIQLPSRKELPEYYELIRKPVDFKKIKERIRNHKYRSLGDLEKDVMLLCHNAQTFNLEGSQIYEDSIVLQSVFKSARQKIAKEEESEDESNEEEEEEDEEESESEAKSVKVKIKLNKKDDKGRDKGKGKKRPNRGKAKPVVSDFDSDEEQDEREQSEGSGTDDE
T2 sequence (P51532 whole entry): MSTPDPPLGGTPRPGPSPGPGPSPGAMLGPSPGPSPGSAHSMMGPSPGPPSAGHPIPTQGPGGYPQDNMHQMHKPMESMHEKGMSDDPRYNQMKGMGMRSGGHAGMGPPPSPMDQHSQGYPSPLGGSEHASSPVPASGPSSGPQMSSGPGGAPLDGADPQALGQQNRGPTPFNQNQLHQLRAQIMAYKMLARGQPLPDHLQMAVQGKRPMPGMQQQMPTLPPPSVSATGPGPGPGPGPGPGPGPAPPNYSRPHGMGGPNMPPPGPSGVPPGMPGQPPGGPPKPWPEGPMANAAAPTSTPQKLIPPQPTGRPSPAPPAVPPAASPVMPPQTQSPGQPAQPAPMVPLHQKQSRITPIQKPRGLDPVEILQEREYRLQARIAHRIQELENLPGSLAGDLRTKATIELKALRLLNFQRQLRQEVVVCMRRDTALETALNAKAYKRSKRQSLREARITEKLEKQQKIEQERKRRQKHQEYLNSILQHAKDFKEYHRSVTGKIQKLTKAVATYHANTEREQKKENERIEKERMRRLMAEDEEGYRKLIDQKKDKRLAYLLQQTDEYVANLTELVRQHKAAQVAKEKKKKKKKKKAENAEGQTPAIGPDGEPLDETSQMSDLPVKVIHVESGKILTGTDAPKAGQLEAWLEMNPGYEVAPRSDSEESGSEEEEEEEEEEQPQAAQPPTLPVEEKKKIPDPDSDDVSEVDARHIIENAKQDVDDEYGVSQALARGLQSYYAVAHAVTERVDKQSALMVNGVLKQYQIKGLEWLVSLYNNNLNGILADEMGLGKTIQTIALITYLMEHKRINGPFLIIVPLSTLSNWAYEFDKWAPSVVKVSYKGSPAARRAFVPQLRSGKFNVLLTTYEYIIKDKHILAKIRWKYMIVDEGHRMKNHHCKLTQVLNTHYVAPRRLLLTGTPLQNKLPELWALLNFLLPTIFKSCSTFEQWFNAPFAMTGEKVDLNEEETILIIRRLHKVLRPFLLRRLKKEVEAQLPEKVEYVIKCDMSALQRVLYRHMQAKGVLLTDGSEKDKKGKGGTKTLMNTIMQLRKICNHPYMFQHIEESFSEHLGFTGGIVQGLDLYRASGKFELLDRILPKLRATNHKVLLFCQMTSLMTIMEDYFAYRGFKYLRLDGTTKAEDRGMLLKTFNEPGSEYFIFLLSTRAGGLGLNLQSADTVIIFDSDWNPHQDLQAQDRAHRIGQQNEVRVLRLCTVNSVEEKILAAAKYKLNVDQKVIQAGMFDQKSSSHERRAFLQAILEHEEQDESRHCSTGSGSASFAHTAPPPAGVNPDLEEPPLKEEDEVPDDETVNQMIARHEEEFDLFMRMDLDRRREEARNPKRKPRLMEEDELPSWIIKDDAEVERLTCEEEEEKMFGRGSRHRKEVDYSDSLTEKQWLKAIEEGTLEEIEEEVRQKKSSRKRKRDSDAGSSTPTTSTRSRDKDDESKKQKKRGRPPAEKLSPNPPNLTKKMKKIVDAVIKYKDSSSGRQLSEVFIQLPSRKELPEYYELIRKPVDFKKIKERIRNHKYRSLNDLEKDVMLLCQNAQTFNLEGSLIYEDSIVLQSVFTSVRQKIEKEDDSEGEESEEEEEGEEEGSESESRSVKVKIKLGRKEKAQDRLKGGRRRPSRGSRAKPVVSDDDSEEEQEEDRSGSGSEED

SMILES	Dmax (SMARCA2 [1]) [%]	DC50 (SMARCA2 [1]) [nM]	Dmax (SMARCA4) [%]	DC50 (SMARCA4) [nM]	Dmax (SMARCA2 [2]) [%]	DC50 (SMARCA2 [2]) [nM]	Selectivity in MV411 (SMARCA2 [2])	SMARCA2 MSD A549 degradation 24 h: Average Dmax % (SMARCA2 [1])	SMARCA2 MSD MV411 degradation 24 h: average Dmax % (SMARCA2 [2])
C#Cc1ccc(CNC(=O)[C@@H]2C[C@@H](O)CN2C(=O)[C@@H](NC(=O)[C@H]2CC3(C2)C[C@H](N2CCC(N4CCC(N5CCN6c7cc(-c8ccccc8O)nnc7NC[C@H]6C5)CC4)CC2)C3)C(C)(C)C)c(OC)c1 (single isomer, unassigned) [I-231]	> 90	50 to 100	50 to 70	> 100	> 90	1 to 10	C (C (10-100 fold))		
Cc1ncsc1-c1ccc(CNC(=O)[C@@H]2C[C@@H](O)CN2C(=O)[C@@H](NC(=O)C2(F)CC2)C(C)(C)C)c(O[C@H]2CC[C@H](N3CCC(c4cnc(N5CCc6[nH]c7nnc(-c8ccccc8O)cc7c6[C@H]5C)nc4)CC3)CC2)c1 (single isomer, unassigned) [I-30]	> 90	< 10	> 90	< 1	> 90	< 1	D (D (<10 fold))		
C#Cc1ccc(CNC(=O)[C@@H]2C[C@@H](O)CN2C(=O)[C@H](NC(=O)N2CC3(CC(N4CCC(c5cnc(N6CCc7[nH]c8nnc(-c9ccccc9O)cc8c7[C@H]6C)nc5)CC4)C3)C2)C(C)(C)CCN2CCN[C@H](C(=O)O)C2)cc1 [I-343]	< 50	> 100	< 50	> 100	< 50	> 100	C (C (10-100 fold))		
C#Cc1ccc(CNC(=O)[C@@H]2C[C@@H](O)CN2C(=O)[C@@H](NC(=O)[C@H]2CCC3(CC2)C[C@H](N2CCC(c4cnc(N5CCN6c7cc(-c8ccccc8O)nnc7NC[C@H]6C5)nc4)CC2)C3)C(C)(C)C)c(Cl)c1 (single isomer, unassigned) [I-98]	> 90	10 to 50	< 50	> 100	70 to 90	1 to 10	A (A (>500 fold))		
C#Cc1ccc(CNC(=O)[C@@H]2C[C@@H](O)CN2C(=O)[C@@H](N(C)C(=O)N2CC3(CC(N4CCC(c5cnc(N6CCc7[nH]c8nnc(-c9ccccc9O)cc8c7[C@H]6C)nc5)CC4)C3)C2)C(C)(C)C)cc1 [I-139]	< 50	> 100	50 to 70	> 100	< 50	> 100	C (C (10-100 fold))		
C#Cc1ccc(CNC(=O)[C@@H]2C[C@@H](O)CN2C(=O)[C@@H](N(CCOC)C(=O)N2CC3(CC(N4CCC(c5cnc(N6CCc7[nH]c8nnc(-c9ccccc9O)cc8c7[C@H]6C)nc5)CC4)C3)C2)C(C)(C)C)cc1 [I-140]	< 50	> 100	< 50	> 100	< 50	> 100	C (C (10-100 fold))		
C#Cc1ccc([C@@H](C)NC(=O)[C@@H]2C[C@@H](O)CN2C(=O)C(c2cc(N3CCC(CN4CCC(N5CCC(N6CCN7c8cc(-c9ccccc9O)nnc8NC[C@H]7C6)CC5)CC4)CC3)no2)C(C)C)c(Cl)c1 (stereo partly drawn) [I-327]	> 90	50 to 100	70 to 90	> 100	70 to 90	10 to 100	C (C (10-100 fold))		
C#Cc1ccc(CNC(=O)[C@@H]2C[C@@H](O)CN2C(=O)[C@H](NC(=O)N2CC3(CC(N4CCC(c5cnc(N6CCc7[nH]c8nnc(-c9ccccc9O)cc8c7[C@H]6C)nc5)CC4)C3)C2)C(C)(C)CCOCC(=O)O)cc1 (single isomer, unassigned) [I-263]	< 50	> 100	< 50	> 100	< 50	> 100	C (C (10-100 fold))		
C#Cc1ccc(CNC(=O)[C@@H]2C[C@@H](O)CN2C(=O)[C@@H](NC(=O)N2CC3(CC(N4CCC(N5CC6(CC(N7CCc8[nH]c9nnc(-c%10ccccc%10O)cc9c8[C@H]7C)C6)C5)CC4)C3)C2)C(C)(C)C)cc1 [I-207]	> 90	> 100	< 50	> 100	70 to 90	1 to 10	B (B (>100-500 fold))		
C#Cc1ccc(CNC(=O)[C@@H]2C[C@@H](O)CN2C(=O)[C@@H](NC(=O)[C@H]2CCC3(CC2)C[C@H](N2CCC(c4cnc(N5CCN6c7cc(-c8cccc(Cl)c8O)nnc7NC[C@@H]6C5)nc4)CC2)C3)C(C)(C)C)cc1 (single isomer, unassigned) [I-154]		> 100				10 to 100		A (A (>90% degradation))	C (C (50-70% degradation))
Cc1ncsc1-c1ccc(CNC(=O)[C@@H]2C[C@@H](O)CN2C(=O)[C@@H](NC(=O)[C@H]2CCC3(CC2)C[C@H](N2CCN(c4cnc(N5CCc6[nH]c7nnc(-c8ccccc8O)cc7c6[C@H]5C)nc4)CC2)C3)C(C)(C)C)cc1 (single isomer, unassigned) [I-118]		> 100				10 to 100		B (B (>70-90% degradation))	C (C (50-70% degradation))
C#Cc1ccc(CNC(=O)[C@@H]2C[C@@H](O)CN2C(=O)[C@@H](NC(=O)[C@H]2CCC3(CC2)C[C@H](N2CCC(c4cnc(N5CCN6c7cc(-c8cccc(Cl)c8O)nnc7NC[C@H]6C5)nc4)CC2)C3)C(C)(C)C)cc1 (single isomer, unassigned) [I-105]		> 100			50 to 70	10 to 100		A (A (>90% degradation))	
